Among the data in article PMC10223552 (Pharmaceuticals, 2023) are IC50 values, retold here.

Holding throughout (type): cell-based
In test [1] the test system is BJ normal skin fibroblast. Briefly: MTT cytotoxicity test, BJ normal fibroblasts. As to conditions: Homo sapiens, 48 h treatment. As to the method:
The studies were conducted on two breast cancer cell lines—MCF-7 (ER+PR+/HER2-negative) and MDA-MB-231 (ER/PR/HER2-negative) and human normal fibroblast cell line BJ. The cell lines were obtained from American Type Culture Collection (ATCC, Manassas, VA, USA) and were cultured at 37 °C in the presence of 5% CO2 in the atmosphere. The culture media (Eagle’s Minimum Essential Medium for MCF-7 and BJ, Leibovitz’s L-15 Medium for MDA-MB-231, Corning, NY, USA), was supplemented with 10% fetal bovine serum. The cell’s morphology was examined under a Nikon Eclipse Ti inverted phase contrast microscope (Nikon, Tokyo, Japan). The authenticity of tested cell lines was verified by short tandem repeat (STR) genotyping in the Department of Forensic Medicine (Medical University of Lublin, Lublin, Poland).
Cell viability based on metabolic activity was evaluated with the MTT colorimetric test based on the ability of viable cells to cause the transformation of tetrazolium salts MTT (3-[4,5-dimethylthiazol-2-yl]-2,5)diphenyltetrazolium bromide) into purple formazan, by cellular dehydrogenases. The cells were seeded into 96-well plates at a concentration of 2 × 10^5 cells/mL. Once 70–80% confluency was reached, tested compounds were added: ADS10310 and ADS1017 in concentrations ranging from 1 to 250 µM or DMSO as the vehicle in control cultures for the next 48 h (max. DMSO concentration <0.5%). Doxorubicin was used for comparison as the standard chemotherapeutic agent used in breast cancer treatment. After 48 h of incubation cell cultures were supplemented with 20 µL of 5 mg/mL MTT (Thermofisher, Waltham, MA, USA) stock in PBS (Corning, NY, USA), and the incubation was continued for 4 h at 37 °C. […] The solution absorbency was measured at 570 nm, using a PowerWave™ xs microplate spectrophotometer (BioTek Instruments, Winooski, VT, USA). […] IC50 values were determined using the AAT Bioquest IC50 calculator (AAT Bioquest, Inc. Quest Graph™ EC50 Calculator. https://www.aatbio.com/tools/ec50-calculator) (accessed on 6 September 2022).

In test [2] the test system is MDA-MB-231 breast cancer cells. The test can be described thus: cells. As to conditions: Homo sapiens, MDA-MB-231; 48 h treatment; read-out: MTT IC50 MDA-MB-231. The method, then: (§1) The cell lines were obtained from American Type Culture Collection (ATCC, Manassas, VA, USA) and were cultured at 37 °C in the presence of 5% CO2 in the atmosphere. […] The cell’s morphology was examined under a Nikon Eclipse Ti inverted phase contrast microscope (Nikon, Tokyo, Japan). The authenticity of tested cell lines was verified by short tandem repeat (STR) genotyping in the Department of Forensic Medicine (Medical University of Lublin, Lublin, Poland).
(§2) Cell viability based on metabolic activity was evaluated with the MTT colorimetric test based on the ability of viable cells to cause the transformation of tetrazolium salts MTT (3-[4,5-dimethylthiazol-2-yl]-2,5)diphenyltetrazolium bromide) into purple formazan, by cellular dehydrogenases. The cells were seeded into 96-well plates at a concentration of 2 × 10^5 cells/mL. […] Doxorubicin was used for comparison as the standard chemotherapeutic agent used in breast cancer treatment. After 48 h of incubation cell cultures were supplemented with 20 µL of 5 mg/mL MTT (Thermofisher, Waltham, MA, USA) stock in PBS (Corning, NY, USA), and the incubation was continued for 4 h at 37 °C. Next, the medium with MTT was removed, and obtained crystals were dissolved in 200 µL of DMSO (dimethyl sulfoxide, Avantor, Gliwice, Poland). The solution absorbency was measured at 570 nm, using a PowerWave™ xs microplate spectrophotometer (BioTek Instruments, Winooski, VT, USA). The experiment was performed three times with three replicates for each concentration of tested compounds.

The subject of test [3] is MCF-7 breast cancer cells. Briefly: cells. The conditions noted are these: Homo sapiens, MCF7; 48 h treatment; read-out: MTT IC50 MCF-7. The method, then:
as §1, §2

For the molecule `COc1cccc2c1C(=O)c1c(O)c3c(c(O)c1C2=O)C[C@@](O)(C(=O)CO)C[C@@H]3O[C@H]1C[C@H](N)[C@H](O)[C@H](C)O1` [Doxorubicin, reference compound], the results for the IC50 in test [1], in test [2] and in test [3] were 4870 nM, 1850 nM and 2120 nM, respectively.
